{"source": "patent US11918620B2", "about": "“Traditional Chinese medicine composition, and preparation method therefor and application thereof” (Suzhou Regen-PharmaTech Co., Ltd., priority 2020, dated 2024)", "tested_on": "rats with hybrid hyperlipidemia", "assay": "Blood lipids in hybrid hyperlipidemia rat model", "assay_type": "in vivo, SD rat", "conditions": "3.3 mg/kg, compared with the modeling control group, at each time point", "protocol": "Grouping: After quarantine, the animals were randomized into a negative control group of 10 animals and modeling groups of the rest. After the modeling groups were given modeling feed for 2 weeks, the animals were anesthetized by isoflurane inhalation without fasting. The blood was collected from orbital venous sinus and was centrifuged at 3000 rpm for 10 min to separate the serum. The total cholesterol (TC), triglyceride (TG), low-density lipoprotein cholesterol (LDL-C) and high-density lipoprotein cholesterol (HDL-C) levels were determined. Animals with lower TG levels were eliminated. […]\n2.8.1 High-fat and high-cholesterol modeling feed: A maintenance feed containing 20.0% of sucrose, 5% of lard, 1.0% of cholesterol, 0.1% of sodium cholate, appropriate amounts of casein, calcium bicarbonate, powdered stone and the like. Other than crude fat, in the modeling feed, moisture, crude protein, crude fat, crude fiber, crude ash, calcium, phosphorus and calcium:phosphorus all satisfied the national standard for maintenance feed. The feed was provided by Guangdong Medical Laboratory Animal Center. […]\n2.8.6.3 Blood lipids: After 2, 4, 7 and 9 weeks of treatment (d14, d28, d52 and d65), the animals were anesthetized by isoflurane inhalation without fasting. […] The TC, TG, LDL-C and HDL-C levels were determined. […]"}
{"smiles": "CC(C)c1c(C(=O)Nc2ccccc2)c(-c2ccccc2)c(-c2ccc(F)cc2)n1CC[C@@H](O)C[C@@H](O)CC(=O)O", "note": "[atorvastatin calcium tablet, atorvastatin calcium]", "values": [{"measurement": "effect on reducing blood lipids (summary)", "value": "no significant effect on reducing the blood lipids"}]}
